# Laboratory results reported in patent publication US9834514B2, “Antibiotic sensitivity-restoring and photosensitive agents” (New Mexico Tech Research Foundation, priority 2015, dated 2017).
# Assays:
# [1] = tested on: HeLa cells; experiment: Toxicity (IC50) on HeLa cells; format: cell-based, human; settings: Homo sapiens; cancerous cervical epithelium HeLa cells
# Description: (§1) The toxicities of the compounds of the invention were determined for human cancerous cervical epithelium HeLa and normal lung fibroblast WI38 cells. The toxicities of EPIs INF-55 and INF-55Cl were quantified as controls. […] TABLE 2 compares the toxicity of compounds 7-11 on HeLa cells and normal WI38 cells.
# [2] = tested on: P. aeruginosa; experiment: MIC against P. aeruginosa; format: cell-based; settings: Pseudomonas aeruginosa, read-out: MIC
# Source text: Only compound 1 was able to decrease the CFU/mL when used in conjunction with white light to treat P. aeruginosa.
# [3] = tested on: Klebsiella pneumoniae (CRE, ATCC BAA-1705); experiment: Cell killing of CRE with compounds in presence or absence of PMB (CFU/mL); format: cell-based; settings: for PMB + Comp: PMB @ 0.2 μg/mL + Comp @ 20 µM; for Comp @ 20 µM: compound alone
# Description: Klebsiella pneumoniae (CRE, ATCC BAA-1705) was grown in TSB overnight at 37° C. and diluted to about 5×10^5 CFU/mL using a McFarland Latex Turbidity standard (0.5). One mL of the cell suspension was transferred to a glass culture test tube. PMB was added to the cell suspension resulting in a final concentration of 200 μg/mL of PMB. The cell suspension was incubated at 37° C. on a rotary shaking incubator at 150 rpm for 4 hours. Compounds 1, 7, 8, 9, 10, and 11 were added to the cell suspension, resulting in a concentration of 20 μM for each of the compounds. The cell suspensions containing the compounds were incubated at 37° C. on a rotary shaking incubator at 150 rpm for 4 hours. Each sample was diluted tenfold to a 10^−5 dilution. Ten 10 microliters of each dilution from each sample was dripped onto a TSA plate and allowed to streak down the plate. The agar plates were incubated at 37° C. for 18-24 hours. Colony counts were performed and CFU/mL values were calculated.
# The MICs of PMB and compounds 7-11 were determined against Klebsiella pneumoniae (CRE, ATCC BAA-1705). […] After the incubation with PMB, each of the compounds was added at a concentration of 20 μM, and the samples were incubated for an additional 18 hours. A sample was taken and diluted ten-fold in media. Ten microliters of each dilution was then drip-streaked onto an agar plate and incubated overnight at 37° C. Colony counts were then performed and the concentrations of cells (CFU/mL) were calculated.
# [4] = tested on: MRSA (ATCC BAA-44); experiment: Synergy with oxacillin and norfloxacin and other antibiotics (colony counts); format: cell-based, S. aureus; settings: for Orders of Magnitude with Norfloxacin / Orders of Magnitude with Oxacillin: increase in ability to kill MRSA versus drug or compound alone
# Description: The synergy of compounds 1 and 7-11 with oxacillin and norfloxacin was tested against MRSA (ATCC BAA-44). An overnight culture of MRSA was first diluted to about 5×10^5 CFU/mL in TSB. Then, 1 mL of the diluted broth suspension was added to a borosilicate glass culture tube. An appropriate volume of a compound or an antibiotic drug stock was added to the broth suspension and mixed using a vortex mixer. Then an appropriate volume of an antibiotic was added to test synergy with compounds 7-11. The samples were subsequently mixed using a vortex mixer, and the samples were incubated for 18 hours at 37° C. on a rotary shaking incubator. After 18 hours, the test cultures were diluted ten-fold, 10 μL of each dilution was drip-streaked onto a TSA plate, and the samples were incubated for 18 hours at 37° C. Colony counts were then performed and the CFU/mL values were calculated.
# TABLE 21 details the MIC values identified in the MRSA assay of compounds 1, 7, 8, 9, 10, 11, various antibiotics, and light.
# [5] = tested on: VRE; experiment: MIC against VRE; format: cell-based, Enterococcus faecalis; settings: Enterococcus, TABLE 23, read-out: VRE MIC
# Description: In a 12×75 mm borosilicate glass culture tube, 1 mL of cell suspension was added. Then, compound 7 was added to the cells, and the samples were mixed using a vortex mixer. […] The samples were incubated overnight at 37° C. on a rotary shaking incubator at 100 rpm.
# [6] = tested on: Klebsiella pneumoniae (CRE, ATCC BAA-1705); experiment: MIC against CRE; format: cell-based; settings: Klebsiella pneumoniae, ATCCBAA1705
# Description: TABLE 27 details the individual MIC values of compounds 1, 7, 8, 9, 10, 11, PMB, PME, and light against CRE.
# The MICs of PME and compounds 8-11 were determined against Klebsiella pneumoniae (CRE, ATCC BAA-1705). […] After the incubation with PME, the compounds were added at a concentration of 20 μM, and the samples were further incubated. At specific time points, the samples were taken and diluted ten-fold in media. Ten microliters of each dilution was then drip-streaked onto an agar plate and incubated overnight at 37° C. Colony counts were then performed and the CFU/mL were calculated.
# [7] = tested on: A. baumannii; experiment: Resensitization to antibiotics (log reduction, TABLE 29); format: cell-based
# [8] = tested on: CRE; experiment: as above; format: cell-based
# Description: In a 96-well microtiter plate, two-fold dilutions were made of each drug (starting with 100 μM) in 100 μL of a cell suspension in TSB. The resulting samples were incubated overnight at 37° C. on a rotary shaking incubator at 100 rpm. The samples were then visually inspected for turbidity. A 20% well volume of MTT reagent (5 mg/mL) was subsequently added, and the samples were incubated for about 20 minutes.
# [9] = tested on: S. aureus (ATCC 29213); experiment: MIC against drug sensitive S. aureus; format: cell-based; settings: Staphylococcus aureus, ATCC29213; ATCC 29213; read-out: S. aureus MIC
# [10] = tested on: MRSA; experiment: Resensitization to antibiotics (log reduction, TABLE 29); format: cell-based, S. aureus
# [11] = tested on: WI38 cells; experiment: Toxicity (IC50) on WI38 cells; format: cell-based; settings: Homo sapiens, WI-38; normal lung fibroblast WI38 cells
# Description: as §1
# [12] = tested on: A. baumannii (ATCC 15151); experiment: Time course of colony counts with compounds and PME or PMB; format: cell-based; settings: FIG. 51
# Description: The MICs of PME and compounds 8-11 were determined against A. baumannii (ATCC 15151). […] After incubating the cells with PME, a compound (5 μM) was added, and the samples were further incubated at 37° C. At specific time points, samples were taken and diluted ten-fold in media. Ten microliters of each dilution was then drip-streaked onto an agar plate and incubated overnight at 37° C. Colony counts were then performed, and the CFU/mL were calculated.
# [13] = (1/40) MIC compound + (1/30) MIC Tetracycline
# [14] = (1/40) MIC compound + (1/31) MIC Dicloxicillin
# [15] = (1/40) MIC compound + (1/50) MIC Dicloxicillin
# [16] = (1/40) MIC compound + (1/50) MIC Norfloxacin
# [17] = (1/40) MIC compound + (1/50) MIC Tobramycin
# [18] = (1/40) MIC compound + (¼) MIC Oxacillin
# [19] = (1/40) MIC compound + (⅙) MIC Vancomycin
# [20] = compared to compound alone, FIGS. 34, 39, 41
# [21] = (⅓) MIC compound + (¼) MIC Norfloxacin
# [22] = (⅓) MIC compound + (½) MIC Oxacillin
# [23] = compound 20 μM, PMB (0.2 μg/mL)
structure (smiles),measurement,setting,value
Clc1ccc(/C=C/c2[nH]c3ccccc3c2/C=C/c2ccc(Cl)cc2)cc1 [Compound 1],IC50,[1],68.9 ± 4.8 µM
same,MIC,[2],> 100 µM
same,PMB + Comp,[3],8.2 × 10^3 CFU/mL
same,Comp @ 20 µM,[3],6.4 × 10^8 CFU/mL
same,% Kill,[4]; [13],99.99%
same,Surviving MRSA,[4]; [13],1.00 × 10^−5
same,% Kill,[4]; [14],99.99%
same,Surviving MRSA,[4]; [14],1.00 × 10^−4
same,% Kill,[4]; [15],99.99%
same,Surviving MRSA,[4]; [15],1.00 × 10^−8
same,% Kill,[4]; [16],99.99%
same,Surviving MRSA,[4]; [16],1.00 × 10^−9
same,% Kill,[4]; [17],99.99%
same,Surviving MRSA,[4]; [17],1.00 × 10^−9
same,% Kill,[4]; [18],99.99%
same,Surviving MRSA,[4]; [18],1.00 × 10^−7
same,% Kill,[4]; [19],99.99%
same,Surviving MRSA,[4]; [19],1.00 × 10^−9
same,% Kill,[4]; (1/40) MIC compound + Light,99.99%
same,Surviving MRSA,[4]; (1/40) MIC compound + Light,1.00 × 10^−8
same,Synergy with Norfloxacin,[4]; TABLE 6,5-log reduction
same,Synergy with Oxacillin,[4]; TABLE 6,5-log reduction
same,"log reduction in the number of surviving cells (CFU/mL), co-treatment with norfloxacin",[4]; [20],~5 log
same,"log reduction in the number of surviving cells (CFU/mL), co-treatment with oxacillin",[4]; [20],~5 log
same,Orders of Magnitude with Norfloxacin,[4],9
same,Orders of Magnitude with Oxacillin,[4],>7
same,MIC,[5],> 200 µM
same,MIC,[6],> 100 µM
same,Log Reduction,"[7]; compound 5 μM, PMB (0.5 μg/mL)",8
same,Log Reduction,"[7]; compound 5 μM, PME (0.2 μg/mL)",8
same,Log Reduction,"[8]; compound 5 μM, PMB (0.2 μg/mL) + Light (2 min)",3
same,Log Reduction,"[8]; compound 10 μM, PME (0.1 μg/mL)",9
same,Log Reduction,"[8]; compound 10 μM, PME (0.2 μg/mL) + Light (2 min)",9
same,MIC,[9],100 µM
same,Log Reduction,"[10]; compound 1 μM, MRSA ATCC BAA-44, Light (2 min)",8
same,Log Reduction,"[10]; compound 10 μM, Dicloxacillin (1 μg/mL)",8
same,Log Reduction,"[10]; compound 10 μM, Doxycycline (0.1 μg/mL)",4
same,Log Reduction,"[10]; compound 10 μM, Vancomycin (0.5 μg/mL)",9
Brc1ccc(/N=N/c2c[nH]c3ccccc23)cc1 [Compound 8],IC50,[1],31.6 µM
same,IC50,[11],11.7 µM
same,MIC,[2],> 100 µM
same,PMB + Comp,[3],None Detected
same,Comp @ 20 µM,[3],6.6 × 10^8 CFU/mL
same,% Kill,[4]; [21],99%
same,Surviving MRSA,[4]; [21],1.00 × 10^−2
same,% Kill,[4]; [22],99.9%
same,Surviving MRSA,[4]; [22],1.00 × 10^−3
same,"MICs greater than cells treated with compound alone, with norfloxacin",[4]; FIGS. 35-38,two-fold
same,"MICs greater than cells treated with compound alone, with oxacillin",[4]; FIGS. 35-38,three-fold
same,Orders of Magnitude with Norfloxacin,[4],>2
same,Orders of Magnitude with Oxacillin,[4],>3
same,MIC,[5],2 µM
same,MIC,[6],> 100 µM
same,A. baumannii colony populations on treatment with compound and PME or PMB,[12],reduced to sterility
same,Log Reduction,"[7]; compound 5 μM, PME (0.05 μg/mL)",9
same,Log Reduction,[7]; [23],9
same,Log Reduction,[8]; [23],6
same,Log Reduction,"[8]; compound 20 μM, PME (0.2 μg/mL)",6
same,MIC,[9],8 µM
same,Log Reduction,"[10]; compound 5 μM, Norfloxacin (25 μg/mL)",2-3
same,Log Reduction,"[10]; compound 5 μM, Oxacillin (50 μg/mL)",3-4
